Key:
[1] = target: T1, deamidated triosephosphate isomerase (dTPI) (Homo sapiens, UniProt P60174, N16D); assay: recombinant enzyme inactivation ([…] h, […] °C; coupled NADH assay), Ellman free-thiol quantification, ANS fluorescence; assay type: biochemical; conditions: 2 h; read-out: recombinant enzyme inactivation (2 h, 37 °C; coupled NADH assay), Ellman free-th
T1 construct: gene TPI1; recombinant human TPI, His-TEV tag removed

[2] = target: T1, deamidated triosephosphate isomerase (dTPI); assay: recombinant enzyme inactivation ([…] h, […] °C; coupled NADH assay), ANS fluorescence; assay type: biochemical; conditions: 2 h; read-out: recombinant enzyme inactivation (2 h, 37 °C; coupled NADH assay), ANS fluorescen

T1 sequence (P60174 2-249 N16D): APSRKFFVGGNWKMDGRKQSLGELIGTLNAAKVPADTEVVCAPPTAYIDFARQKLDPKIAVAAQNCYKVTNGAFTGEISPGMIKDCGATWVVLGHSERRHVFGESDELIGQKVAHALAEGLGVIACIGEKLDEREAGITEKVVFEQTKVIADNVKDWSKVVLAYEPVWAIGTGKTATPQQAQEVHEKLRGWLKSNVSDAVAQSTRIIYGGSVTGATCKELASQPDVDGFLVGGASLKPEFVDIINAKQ

| Structure (SMILES) | IC100 [1] [µM] | IC90 [2] [µM] |
| --- | --- | --- |
| CCN(CC)C(=S)SSC(=S)N(CC)CC [DS, disulfiram] | 250 | – |
| COc1cc(/C=C/C(=O)CC(=O)/C=C/c2ccc(O)c(OC)c2)ccc1O [CU, curcumin] | – | ~1500 |
